These results are taken from patent US4806556A, “Gut-selective opiates” (Regents of the University of Minnesota, priority 1987, dated 1989).

The subject of test [1] is electrically-stimulated guinea pig ileum (GPI) preparations. The test can be described thus: Antagonist activity: displacement of the morphine concentration-response curve on guinea pig ileum preparation. Particulars: for Antagonism (Morphine IC50 Ratio): factor by which the morphine concentration-response curve is shifted to higher concentration: IC50 of morphine with antagonist / control IC50, 3 determinations.

For test [2] the test system is unchanged. The test can be described thus: Agonist activity: inhibition of contraction of electrically-stimulated guinea pig ileum (GPI) preparation, compared to morphine. Details: Emax: dose or concentration left out as unconfirmed. Particulars: for Emax: Cavia porcellus, read-out: Agonism: partial agonist, maximal response relative to that of morphine; for Agonist activity on GPI (in words): compared to morphine; for Agonism (Morphine = 1): potency factor for the inhibition of contraction relative to that of morphine: electrically stimulated guinea pig ileum, 3 determinations.

Take `O=C(O)CCC(=O)NC1CC[C@@]2(O)[C@H]3Cc4ccc(O)c5c4[C@@]2(CCN3CC2CC2)[C@H]1O5` (stereo partly drawn) [Compound 1]: in test [1] (ligand concentration 200 nM), the “Antagonism (Morphine IC50 Ratio): factor by which the morphine concentration-response curve is shifted to higher concentration” value stood at 11.0. For the same compound, in test [2], the Emax was in the range of 30 to 60% and the “Agonist activity on GPI (in words)” value is reported as “submaximal responses relative to morphine”.

As for `O=C(O)/C=C/C(=O)NC1CC[C@@]2(O)[C@H]3Cc4ccc(O)c5c4[C@@]2(CCN3CC2CC2)[C@H]1O5` (stereo partly drawn) [Compound 3], in test [1] (ligand concentration = 20 nM), the “Antagonism (Morphine IC50 Ratio): factor by which the morphine concentration-response curve is shifted to higher concentration” value was 3.7. Moreover, the “Agonism (Morphine = 1): potency factor for the inhibition of contraction relative to that of morphine” value in test [2] was determined as 3.

Consider `O=C(O)COCC(=O)NC1CC[C@@]2(O)[C@H]3Cc4ccc(O)c5c4[C@@]2(CCN3CC2CC2)[C@H]1O5` (stereo partly drawn) [Compound 4], for which, in test [1] (ligand concentration 200 nM), the “Antagonism (Morphine IC50 Ratio): factor by which the morphine concentration-response curve is shifted to higher concentration” value is on record as 34.8. In test [2], the Emax fell in the range of 30 to 60% and the “Agonist activity on GPI (in words)” value is recorded as “submaximal responses relative to morphine”.

For `N=C(N)NCCCC(N)C(=O)N[C@@H]1CC[C@@]2(O)[C@H]3Cc4ccc(O)c5c4[C@@]2(CCN3CC2CC2)[C@H]1O5` (stereo partly drawn) [Compound 5, Arginyl-β-naltrexamine], the “Antagonism (Morphine IC50 Ratio): factor by which the morphine concentration-response curve is shifted to higher concentration” value in test [1] (ligand concentration 200 nM) stood at 4.0. In test [2], the Emax is 30 to 60% and the “Agonist activity on GPI (in words)” value is recorded as “submaximal responses relative to morphine”.

As for `NC(CC(=O)O)C(=O)NC1CCC2(O)C3Cc4ccc(O)c5c4C2(CCN3CC2CC2)C1O5` (stereo not drawn) [Compound 6], in test [1], the “Morphine antagonist activity on GPI (in words)” value is reported as “possible exception to this generality”. Further, the “Antagonism (Morphine IC50 Ratio): factor by which the morphine concentration-response curve is shifted to higher concentration” value in test [1] (ligand concentration 200 nM) was 1. The “Agonism (Morphine = 1): potency factor for the inhibition of contraction relative to that of morphine” value in test [2] came out at 14.2.

With `O=C(O)CN[C@@H]1CC[C@@]2(O)[C@H]3Cc4ccc(O)c5c4[C@@]2(CCN3CC2CC2)[C@H]1O5` [Compound 7, β-Naltrexamineacetic acid], in test [1] (ligand concentration = 20 nM), the “Antagonism (Morphine IC50 Ratio): factor by which the morphine concentration-response curve is shifted to higher concentration” value came out at 2.4. For the same compound, in test [2], the Emax was 30 to 60% and the “Agonist activity on GPI (in words)” value is “submaximal responses relative to morphine”.

As to `CN1CC[C@]23c4c5ccc(O)c4O[C@H]2C(NC(=O)CCC(=O)O)CC[C@@]3(O)[C@H]1C5` (stereo partly drawn) [Compound 8], the “Antagonism (Morphine IC50 Ratio): factor by which the morphine concentration-response curve is shifted to higher concentration” value in test [1] (ligand concentration 200 nM) stood at 1. Further, in test [2], the “Agonism (Morphine = 1): potency factor for the inhibition of contraction relative to that of morphine” value is recorded as 1.6.

As for `CN1CC[C@]23c4c5ccc(O)c4O[C@H]2C(NC(=O)/C=C/C(=O)O)CC[C@@]3(O)[C@H]1C5` (stereo partly drawn) [Compound 9], the “Antagonism (Morphine IC50 Ratio): factor by which the morphine concentration-response curve is shifted to higher concentration” value in test [1] (ligand concentration 200 nM) is reported as 1. For the same compound, the “Agonism (Morphine = 1): potency factor for the inhibition of contraction relative to that of morphine” value in test [2] turned out to be 1.5.

With `CN1CC[C@]23c4c5ccc(O)c4O[C@H]2C(NC(=O)/C=C\C(=O)O)CC[C@@]3(O)[C@H]1C5` (stereo partly drawn) [Compound 10], the “Antagonism (Morphine IC50 Ratio): factor by which the morphine concentration-response curve is shifted to higher concentration” value in test [1] (ligand concentration 200 nM) turned out to be 1. Moreover, the “Agonism (Morphine = 1): potency factor for the inhibition of contraction relative to that of morphine” value in test [2] is on record as 2.7.

In the case of `CN1CC[C@]23c4c5ccc(O)c4O[C@H]2C(NC(=O)COCC(=O)O)CC[C@@]3(O)[C@H]1C5` (stereo partly drawn) [Compound 11], in test [1] (ligand concentration 200 nM), the “Antagonism (Morphine IC50 Ratio): factor by which the morphine concentration-response curve is shifted to higher concentration” value is listed as 1. The “Agonism (Morphine = 1): potency factor for the inhibition of contraction relative to that of morphine” value in test [2] is listed as 3.1.

For the compound `CN1CC[C@]23c4c5ccc(O)c4O[C@H]2C(NC(=O)C(N)CC(=O)O)CC[C@@]3(O)[C@H]1C5` (stereo partly drawn) [Compound 12], the “Antagonism (Morphine IC50 Ratio): factor by which the morphine concentration-response curve is shifted to higher concentration” value in test [1] (ligand concentration 200 nM) turned out to be 1. Moreover, the “Agonism (Morphine = 1): potency factor for the inhibition of contraction relative to that of morphine” value in test [2] came out at 6.1.

Regarding `O=C(O)CNN=C1CC[C@@]2(O)[C@H]3Cc4ccc(O)c5c4[C@@]2(CCN3CC2CC2)[C@H]1O5` [Compound 15, Naltrexazoneacetic acid], the “Antagonism (Morphine IC50 Ratio): factor by which the morphine concentration-response curve is shifted to higher concentration” value in test [1] (ligand concentration 200 nM) was 100. The Emax in test [2] is 30 to 60%.

Turning to `N=C(N)NN=C1CC[C@@]2(O)[C@H]3Cc4ccc(O)c5c4[C@@]2(CCN3CC2CC2)[C@H]1O5` [Compound 16, Naltrexazone iminosemicarbazone], the “Agonism (Morphine = 1): potency factor for the inhibition of contraction relative to that of morphine” value in test [2] amounted to 29.
